# In patent US20250243180A1, “TARGETED PROTEIN DEGRADATION” (Monte Rosa Therapeutics AG, priority 2023, published 2025):
# pIC50: −log10 of the molar value.
# How the values were obtained:
# [1] = test system: IL-1β; test: IL-1β in human monocyte-derived macrophages, LPS/MSU stimulation; assay type: cell-based; conditions: 24 h pre-treatment, LPS + MSU 6 h, eight donors
# Method: (§1) Human monocytes were enriched and isolated from a buffy coat of whole blood with a RosetteSep™ Human Monocyte Enrichment Cocktail (Cat.No. 15068, StemCell) and Ficoll-Plaque PLUS (Cat.No. H8889, Sigma). Monocytes were differentiated into macrophages by treatment with 100 ng/mL M-CSF for 6 days at 37° C., 5% CO2. Differentiated macrophages were seeded overnight (50,000 cells/well) in 100 μL of medium in a 96-well white-bottom plate at 37° C., 5% CO2. Cells were treated with a concentration range of MGD or the NLRP3 inhibitor selnoflast (Cat.No. HY-132831, MedChemExpress) for 24 h prior to stimulation with monosodium urate crystals (MSU). Macrophages were stimulated with […] lipopolysaccharide (LPS) and 0.2 mg/mL MSU for 6 h. Medium of stimulated macrophages were collected and assayed for caspase-1 activity directly (Promega G9951) as well as IL-1β (Promega W6010), according to manufacturer's instructions.
# (§2) (a, b) Human monocyte-derived macrophages pre-treated with a dose-response of Compound 14 or selnoflast (NLRP3 inhibitor) for 24 h and stimulated with a combination of lipopolysaccharide (LPS) and monosodium urate crystals (MSU) for 6 h prior to supernatant collection. Monocytes were isolated from eight human donors. Caspase-1 (a) and IL-1β (b) in the supernatant are measured and data are expressed as percentage relative to mean values of DMSO conditions for each donor (technical triplicates). Means of eight donors are plotted and analyzed using a four-parameter logistic regression model.
# [2] = Plasma concentration in NHP, multiple-dose study 5 mg/kg oral; assay type: in vivo, cynomolgus monkeys; conditions: both sexes, cynomolgus monkey
# Method: Non-naïve male and female non-human primate (NHP) cynomolgus monkeys were orally administered with 5 consecutive daily doses of Compound 14 at 5 mg/kg, n=2 per dose group, 1 male and 1 female. Compound formulation was prepared on the day of administration in 0.5% methyl cellulose (4000 cps) in water and animals were fasted overnight. Plasma collected post dose were analyzed using a non GLP LC/MS/MS bioanalytical method to evaluate the compound concentration. Whole blood collected post dose were processed to PBMC and were analyzed using western blot method. Plasma pharmacokinetics and PMBC pharmacodynamics were assessed longitudinally throughout dosing and following dosing cessation.
# In Table 7, plasma was isolated 6 h after final dose (dosed once or over five consecutive days), n=2. Plasma collected post dose were analyzed using a non GLP LC/MS/MS bioanalytical method to evaluate the compound concentration.
# [3] = test system: NEK7; test: NEK7 degradation in the brain of NHP (JESS); assay type: in vivo; conditions: oral 30 mg/kg for 7 days; for Average percent NEK7/β-actin in brain, relative to vehicle: 24 h after final dose
# Method: Naïve NHP were orally administered with 7 consecutive daily dose of Compound 14 at 30 mg/kg, n=4 per dose group, 2 male and 2 female. Compound formulation was prepared on the day of administration in 0.5% methyl cellulose (4000 cps) in water and animals were fed twice a day; water was available ad libitum. Plasma collected posted dose on Day 1 and Day 7 were analyzed using a non GLP LC/MS/MS bioanalytical method to evaluate the compound concentration. Brain samples were harvested 24 h after final dose. Lysates for different brain regions (hippocampus, frontal cortex, and cerebellum) were prepared in M-PER lysis buffer and diluted at total protein concentration of 0.4 mg/mL in 0.1× sample buffer (12-230 kDa detection module; Protein Simple). The anti-NEK7 rabbit mAb (Abcam #AB133514) was used at 1:100 and anti-β-actin rabbit mAb (CST #5125) was used at 1:500. Samples were probed for NEK7 and β-actin protein levels by JESS, and quantified relative to vehicle control.
# In Table 11, NEK7 protein degradation in brains of NHP following oral dosing of Compound 14 is reported. NHP received daily oral administration of 30 mg/kg of Compound 14 or vehicle for 7 days. For Compound 14 group, n=4 (two male and two female); for vehicle, n=2; samples taken 24 h post-final dose. Brains were harvested 24 h after final dose, sectioned by region (hippocampus, frontal cortex, cerebellum), and analyzed for NEK7 and beta-actin protein levels by JESS. The average percent of NEK7 was quantified by brain region and normalized to β-actin.
# [4] = test system: Caspase-1 activity; test: Caspase-1 activity in human monocyte-derived macrophages, LPS/MSU stimulation; assay type: cell-based
# Method: as §1, §2
# [5] = test system: New Zealand White rabbits, MSU crystal gout model; test: In vivo rabbit gout model (intra-articular MSU): joint swelling and CD31 staining; conditions: daily prophylactic treatment
# Method: MSU crystals were prepared by dissolving uric acid (Aladdin, cat #U105582) in boiling water (1 g in 200 mL with 6 mL of 1 N NaOH). PH value was adjusted to 7.2 by HCl. The solution was stirred and cooled to room temperature and stored at 4° C. overnight. The precipitate was filtered with filter paper and dried under low heat to obtain MSU crystals. New Zealand White rabbits received an intra-articular injection of 1 mL of MSU crystals (50 mg/mL) into both knees (MSU group) or PBS (as vehicle, control group). n=10 for MSU groups; n=6 for PBS group.
# For immunohistochemistry, bone sections were stained with anti-CD31 (Abcam #ab9498) diluted at 1:500. The nuclei were stained with hematoxylin. Slides were scanned using LEICA Aperio GT450 at 400× magnification. The number of positive blood vessels were counted blindly.
# (a) To determine NEK7 degradation, spleens and peripheral blood mononuclear cells (PBMC) were analyzed by JESS for NEK7 and normalized to α-Tubulin from five representative animals. (b) The degree of joint swelling was determined by caliper measurements at the indicated time points. (c) Rabbit bone tissue sections were stained and quantified for anti-CD31 immunohistochemistry. Results expressed as mean±SEM. Statistical analysis was performed using two-way ANOVA. The difference was considered significant when p<0.05.
"pIC50 ([1]; Homo sapiens, Macrophage)","concentration at 6 h ([2]; Day 1, 6 h post final dose) [ng/mL]","concentration at 6 h ([2]; Day 5, 6 h post final dose) [ng/mL]","pIC50 ([4]; Homo sapiens, Macrophage, 24 h pre-treatment, LPS + MSU 6 h, eight donors)",inhibition of NLRP3-driven activation of human macrophages ([4]; LPS/MSU stimulation),SMILES,IL-1β Imax [1] [%],degradation of NEK7 across three different brain regions [3],"Average percent NEK7/β-actin in brain, relative to vehicle ([3]; Cerebellum) [%]","Average percent NEK7/β-actin in brain, relative to vehicle ([3]; Frontal Cortex) [%]","Average percent NEK7/β-actin in brain, relative to vehicle ([3]; Hippocampus) [%]","Caspase-1 activity Imax ([4]; 24 h pre-treatment, LPS + MSU 6 h, eight donors) [%]",CD31 staining in bone tissue [5],joint swelling induced by intra-articular MSU injection [5]
8.96,5.4,7.5,8.80,dose-dependent inhibition,"Cc1cnc(C(C)(C)C(=O)NCc2cc(Cl)c(C3CCC(=O)NC3=O)c(Cl)c2)nc1 (stereo not shown) [Compound 14, N-(3,5-dichloro-4-(2,6-dioxopiperidin-3-yl)benzyl)-2-methyl-2-(5-methylpyrimidin-2-yl)-propanamide]",70,around 80%,18.2,20.3,21.3,81,–,–
–,–,–,–,–,"CC(C)(C(=O)NCc1cc(Cl)c(C2CCC(=O)NC2=O)c(Cl)c1)c1ncc(C#N)cn1 (stereo not shown) [Compound 16, 2-(5-cyanopyrimidin-2-yl)-N-(3,5-dichloro-4-(2,6-dioxopiperidin-3-yl)benzyl)-2-methyl-propanamide]",–,–,–,–,–,–,improvement,improvement
